As usually defined, the IC50 is the midpoint of a concentration-inhibition curve.

We go through 23 compounds from patent US9663526B2, “Aminopyrimidinyl compounds” (Pfizer Inc., priority 2014, dated 2017).

Like-named read-outs stand apart in the source and are kept apart here.

Type in all cases: biochemical
The target of assay [1] is recombinant human kinase domain of JAK1 (Homo sapiens (Human), UniProt P23458). Nature of the assay: JAK Caliper enzyme assay at 1 mM ATP (JAK1).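 Note: microfluidic mobility-shift readout of synthetic fluorescent peptide phosphorylation, percent product converted from peak height, inhibition relative to DMSO-only wells as uninhibited baseline, room temperature incubation.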
Assay [2] addresses recombinant human kinase domain of JAK3 (Homo sapiens (Human), UniProt P52333). Nature of the assay: JAK Caliper enzyme assay at 1 mM ATP (JAK3).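 Note: microfluidic mobility-shift readout of synthetic peptide phosphorylation, percent product converted from peak heights, normalized to DMSO-only wells as uninhibited baseline, room temperature incubation.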
The target of assay [3] is recombinant human kinase domain of TYK2 (Homo sapiens (Human), UniProt P29597). Briefly: JAK Caliper enzyme assay at 1 mM ATP (TYK2).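 Note: microfluidic mobility-shift readout of synthetic peptide phosphorylation by TYK2, tuned to 20–30% conversion at room temperature, reaction stopped with EDTA, DMSO-only wells as uninhibited baseline.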 The following applies: 1 mM ATP; read-out: IC50 (nM) TYK2.
In assay [4] the target is recombinant human kinase domain of JAK2 (Homo sapiens (Human), UniProt O60674). Briefly: JAK Caliper enzyme assay at 1 mM ATP (JAK2).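 Note: microfluidic mobility-shift read-out of fluorescent synthetic peptide phosphorylation, percent product converted from peak heights, room temperature, DMSO-only wells as uninhibited baseline, inhibition curve fit.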
Setting [5] is: 1 mM ATP, read-out: IC50 (nM) JAK1.
Where [6] appears, read: 1 mM ATP, read-out: IC50 (nM) JAK3.

Sequence of recombinant human kinase domain of JAK1 (P23458 875-1153): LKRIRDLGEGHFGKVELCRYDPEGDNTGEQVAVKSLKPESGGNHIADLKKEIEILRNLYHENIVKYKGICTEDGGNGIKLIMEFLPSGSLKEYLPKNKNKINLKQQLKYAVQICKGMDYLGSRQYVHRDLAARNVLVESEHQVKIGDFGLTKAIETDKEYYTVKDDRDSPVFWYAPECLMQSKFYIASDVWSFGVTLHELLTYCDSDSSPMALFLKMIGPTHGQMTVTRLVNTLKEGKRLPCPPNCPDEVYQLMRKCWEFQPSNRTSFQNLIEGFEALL
Sequence of recombinant human kinase domain of JAK3 (P52333 822-1111): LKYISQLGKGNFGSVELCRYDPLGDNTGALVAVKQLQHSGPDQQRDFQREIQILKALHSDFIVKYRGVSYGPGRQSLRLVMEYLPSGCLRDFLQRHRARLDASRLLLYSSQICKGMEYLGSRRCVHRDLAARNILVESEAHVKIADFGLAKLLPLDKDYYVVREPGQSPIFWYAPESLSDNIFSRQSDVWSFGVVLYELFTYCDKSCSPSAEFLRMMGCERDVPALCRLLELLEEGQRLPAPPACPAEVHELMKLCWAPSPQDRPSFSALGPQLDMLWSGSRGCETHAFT
Sequence of recombinant human kinase domain of JAK2 (O60674 849-1124): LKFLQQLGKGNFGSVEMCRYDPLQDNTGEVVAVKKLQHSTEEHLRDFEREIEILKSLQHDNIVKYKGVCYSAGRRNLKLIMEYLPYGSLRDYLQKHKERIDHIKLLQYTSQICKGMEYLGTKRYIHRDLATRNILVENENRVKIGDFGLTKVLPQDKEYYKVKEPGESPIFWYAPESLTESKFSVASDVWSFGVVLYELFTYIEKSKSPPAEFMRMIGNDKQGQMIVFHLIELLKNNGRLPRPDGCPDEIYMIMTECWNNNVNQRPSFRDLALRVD
Sequence of recombinant human kinase domain of TYK2 (P29597 897-1176): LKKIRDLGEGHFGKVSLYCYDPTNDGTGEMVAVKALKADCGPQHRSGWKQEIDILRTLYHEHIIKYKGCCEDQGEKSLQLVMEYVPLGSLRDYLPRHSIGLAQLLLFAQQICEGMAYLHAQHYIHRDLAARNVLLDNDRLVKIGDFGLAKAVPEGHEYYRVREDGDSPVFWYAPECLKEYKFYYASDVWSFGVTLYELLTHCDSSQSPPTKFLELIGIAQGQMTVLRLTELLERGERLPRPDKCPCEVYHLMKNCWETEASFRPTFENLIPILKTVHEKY

For the compound `CNC(=O)c1ncc(Nc2nccc(N3C[C@H]4CC[C@@H](C3)N4[C@H]3C[C@H](C#N)C3)n2)cc1C` (single isomer, unassigned) [Example 62], the IC50 was 1020 nM in assay [1], more than 10000 nM in assay [2], 224 nM in assay [3] and 1390 nM in assay [4].

In the case of `CCNC(=O)c1ccc(Nc2nccc(N3C[C@H]4CC[C@@H](C3)N4C(=O)CC#N)n2)cc1` [Example 13, 4-({4-[(1R,5S)-8-(cyanoacetyl)-3,8-diazabicyclo[3.2.1]oct-3-yl]pyrimidin-2-yl}amino)-N-ethylbenzamide], the IC50 was 41 nM in assay [1] (setting [5]), more than 10000 nM in assay [2] (setting [6]) and 199 nM in assay [4].

Take `O=C(C1CC1)N1[C@@H]2CC[C@H]1CN(c1ccnc(Nc3cnsc3)n1)C2` [Example 52, cyclopropyl{(1R,5S)-3-[2-(1,2-thiazol-4-ylamino)pyrimidin-4-yl]-3,8-diazabicyclo[3.2.1]oct-8-yl}methanone]: the IC50 in assay [1] (setting [5]) is 172 nM; in assay [2] (setting [6]), more than 10000 nM; in assay [3], 93 nM; in assay [4], 1240 nM.

Turning to `CC(CC#N)N1[C@@H]2CC[C@H]1CN(c1ccnc(Nc3cn[nH]c3)n1)C2` (stereo partly drawn) [Example 82, 3-{(1R,5S)-3-[2-(1H-pyrazol-4-ylamino)pyrimidin-4-yl]-3,8-diazabicyclo[3.2.1]oct-8-yl}butanenitrile], the IC50 is 135 nM in assay [1] (setting [5]), more than 10000 nM in assay [2] (setting [6]), 79 nM in assay [3] and 473 nM in assay [4].

Regarding `CC(CC#N)N1[C@@H]2CC[C@H]1CN(c1ccnc(Nc3cnn(C)c3)n1)C2` (some centres unmarked) [Example 81], the half-maximal inhibitory concentration (IC50) was 405 nM in assay [1] (setting [5]), more than 10000 nM in assay [2] (setting [6]), 199 nM in assay [3] and 603 nM in assay [4].

For the compound `O=C(N[C@@]12C[C@@H]1CN(c1nc(Nc3cnn(CCO)c3)ncc1Cl)C2)C1CC1` [Example 107, N-[(1S,5R)-3-(5-chloro-2-{[1-(2-hydroxyethyl)-1H-pyrazol-4-yl]amino}pyrimidin-4-yl)-3-azabicyclo[3.1.0]hex-1-yl]cyclopropanecarboxamide], the IC50 in assay [1] (setting [5]) worked out at 19 nM; in assay [2] (setting [6]), 1880 nM; in assay [3] it was 21 nM; in assay [4] it was 177 nM.

Take `O=C(c1ccno1)N1[C@@H]2CC[C@H]1CN(c1ccnc(Nc3cn[nH]c3)n1)C2` [Example 17, 1,2-oxazol-5-yl{(1R,5S)-3-[2-(1H-pyrazol-4-ylamino)pyrimidin-4-yl]-3,8-diazabicyclo[3.2.1]oct-8-yl}methanone]: the IC50 in assay [1] (setting [5]) was 684 nM; in assay [2] (setting [6]) it was more than 10000 nM; in assay [3], 242 nM; in assay [4] it was 3380 nM.

Turning to `CNC(=O)c1cc(Nc2nccc(N3C[C@H]4CC[C@@H](C3)N4C(=O)[C@@H]3CC3(F)F)n2)cc(C)n1` [Example 40, 4-({4-[(1R,5S)-8-{[(1S)-2,2-difluorocyclopropyl]carbonyl}-3,8-diazabicyclo[3.2.1]oct-3-yl]pyrimidin-2-yl}amino)-N,6-dimethylpyridine-2-carboxamide], the IC50 is 369 nM in assay [1] (setting [5]), more than 10000 nM in assay [2] (setting [6]), 70 nM in assay [3] and 189 nM in assay [4].

Take `O=C(N[C@]12C[C@H]1CN(c1nc(Nc3cnn(CCO)c3)ncc1Cl)C2)C1CC1` [Example 108, N-[(1R,5S)-3-(5-chloro-2-{[1-(2-hydroxyethyl)-1H-pyrazol-4-yl]amino}pyrimidin-4-yl)-3-azabicyclo[3.1.0]hex-1-yl]cyclopropanecarboxamide]: the IC50 was determined as 323 nM in assay [1] (setting [5]), 3960 nM in assay [2] (setting [6]), 675 nM in assay [3] and 1490 nM in assay [4].

Consider `CNC(=O)c1ncc(Nc2nccc(N3C[C@H]4CC[C@@H](C3)N4C[C@H]3CC3(F)F)n2)cc1C` [Example 68, 5-({4-[(1R,5S)-8-{[(1R)-2,2-difluorocycloproDyl]methyl}-3,8-diazabicyclo[3.2.1]oct-3-yl]pyrimidin-2-yl}amino)-N,3-dimethylpyridine-2-carboxamide], for which the IC50 in assay [1] (setting [5]) was 85 nM; in assay [2] (setting [6]), more than 10000 nM; in assay [3] it was 22 nM; in assay [4], 188 nM.

Turning to `Cn1cc(Nc2nccc(N3C[C@H]4CC[C@@H](C3)N4c3cc(C#N)ccn3)n2)cn1` [Example 92, 2-[(1R,5S)-3-{2-[(1-methyl-1H-pyrazol-4-yl)amino]pyrimidin-4-yl}-3,8-diazabicyclo[3.2.1]oct-8-yl]pyridine-4-carbonitrile], the IC50 was found to be 52 nM in assay [1] (setting [5]), 6560 nM in assay [2] (setting [6]), 62 nM in assay [3] and 264 nM in assay [4].

Consider `CNC(=O)c1cc(Nc2nccc(N3C[C@H]4CC[C@@H](C3)N4C(=O)[C@@H]3CC3(F)F)n2)cc(CO)n1` [Example 41, 4-({4-[(1R,5S)-8-{[(1S)-2,2-difluorocyclopropyl]carbonyl}-3,8-diazabicyclo[3.2.1]oct-3-yl]pyrimidin-2-yl}amino)-6-(hydroxymethyl)-N-methylpyridine-2-carboxamide], for which the IC50 was 201 nM in assay [1] (setting [5]), more than 10000 nM in assay [2] (setting [6]), 84 nM in assay [3] and 279 nM in assay [4].

On to `CCNC(=O)c1ccc(Nc2ncc(F)c(N3C[C@H]4CC[C@@H](C3)N4C(=O)C(F)(F)F)n2)cc1C` [Example 72, N-ethyl-4-({5-fluoro-4-[8-(trifluoroacetyl)-3,8-diazabicyclo[3.2.1]oct-3-yl]pyrimidin-2-yl}amino)-2-methylbenzamide], for which the IC50 came to 81 nM in assay [1] (setting [5]), 411 nM in assay [2] (setting [6]) and 151 nM in assay [4].

Turning to `Cn1cc(Nc2nccc(N3C[C@H]4CC[C@@H](C3)N4C(=O)C3CC(F)(F)C3)n2)cn1` [Example 39, (3,3-difluorocyclobutyl)[(1R,5S)-3-{2-[(1-methyl-1H-pyrazol-4-yl)amino]pyrimidin-4-yl}-3,8-diazabicyclo[3.2.1]oct-8-yl]methanone], the IC50 in assay [1] (setting [5]) was 305 nM; in assay [2] (setting [6]), more than 10000 nM; in assay [3] it was 136 nM; in assay [4], 1170 nM.

As for `NC(=O)c1ncc(Nc2nccc(N3C[C@H]4CC[C@@H](C3)N4C(=O)[C@@H]3CC3(F)F)n2)cc1F` [Example 117, 5-({4-[(1R,5S)-8-{[(1S)-2,2-Difluorocyclopropyl]carbonyl}-3,8-diazabicyclo[33.2.1]oct-3-yl]pyrimidin-2-yl}amino)-3-fluoropyridine-2-carboxamide], the IC50 in assay [1] (setting [5]) was 114 nM; in assay [2] (setting [6]) it was more than 10000 nM; in assay [4], 452 nM.

`O=C([C@H]1CC1(F)F)N1[C@@H]2CC[C@H]1CN(c1ccnc(Nc3cn[nH]c3)n1)C2` [Example 50, ((1R,5S)-3-(2-((1H-Pyrazol-4-yl)amino)pyrimidin-4-yl)-3,8-diazabicyclo[3.2.1]octan-8-yl)((R)-2,2-difluorocyclopropyl)methanone]: the IC50 in assay [1] (setting [5]) is 478 nM; in assay [2] (setting [6]), more than 10000 nM; in assay [4], 3420 nM.

For the compound `NS(=O)(=O)c1ccc(Nc2ncc(F)c(N3C[C@H]4CC[C@@H](C3)N4C(=O)C3CC3)n2)cn1` [Example 4, 5-({4-[(1R,5S)-8-(cyclopropylcarbonyl)-3,8-diazabicyclo[3.2.1]oct-3-yl]-5-fluoropyrimidin-2-yl}amino)pyridine-2-sulfonamide], the IC50 in assay [1] (setting [5]) is 659 nM; in assay [2] (setting [6]) it was more than 10000 nM; in assay [3] it was 176 nM.

`C[C@@H]1[C@@H]2CN(c3nc(Nc4cnc([C@@H](C)O)c(Cl)c4)ncc3F)C[C@]12NC(=O)C1CC1` [Example 106, N-{(1S,5R,6R)-3-[2-({5-chloro-6-[(1R)-1-hydroxyethyl]pyridin-3-yl}amino)-5-fluoropyrimidin-4-yl]-6-methyl-3-azabicyclo[3.1.0]hex-1-yl}cyclopropanecarboxamide]: the IC50 in assay [2] (setting [6]) is more than 10000 nM; in assay [4], 9410 nM.

Take `Cn1cc(Nc2nccc(N3C[C@H]4CC[C@@H](C3)N4C(=O)NCCC#N)n2)cn1` [Example 47, (1R,5S)—N-(2-cyanoethyl)-3-{2-[(1-methyl-1H-pyrazol-4-yl)amino]pyrimidin-4-yl}-3,8-diazabicyclo[3.2.1]octane-8-carboxamide]: the IC50 in assay [1] (setting [5]) was 42 nM; in assay [2] (setting [6]) it was more than 10000 nM; in assay [3], 65 nM.

As for `CNC(=O)c1ncc(Nc2nccc(N3C[C@H]4CC[C@@H](C3)N4CC3(C)COC3)n2)cc1C` [Example 54, N,3-dimethyl-5-[(4-{(1R,5S)-8-[(3-methyloxetan-3-yl)methyl]-3,8-diazabicyclo[3.2.1]oct-3-yl}pyrimidin-2-yl)amino]pyridine-2-carboxamide], the IC50 in assay [1] (setting [5]) came out at 19 nM; in assay [2] (setting [6]), 4290 nM; in assay [3], 8 nM.

As to `Cc1cc(Nc2nccc(N3C[C@H]4CC[C@@H](C3)N4C(=O)C3CC3(F)F)n2)cnc1C(N)=O` (stereo partly drawn) [Example 34, 5-[(4-{(1R,5S)-8-[(2,2-difluorocyclopropyl)carbonyl]-3,8-diazabicyclo[3.2.1]oct-3-yl}pyrimidin-2-yl)amino]-3-methylpyridine-2-carboxamide], the figures for the IC50 in assay [1] (setting [5]), in assay [2] (setting [6]) and in assay [4] were 152 nM, more than 10000 nM and 377 nM, respectively.

In the case of `CCNC(=O)c1ccc(Nc2ncc(F)c(N3CC4CC(C3)N4C(=O)C(F)(F)F)n2)cc1C` [Example 116, N-ethyl-4-({5-fluoro-4-[6-(trifluoroacetyl)-3,6-diazabicyclo[3.1.1]hept-3-yl]pyrimidin-2-yl}amino)-2-methylbenzamide], the half-maximal inhibitory concentration (IC50) in assay [1] (setting [5]) is 1470 nM; in assay [2] (setting [6]), 9820 nM; in assay [3] it was 20 nM.

Turning to `N#CC1(CN2[C@@H]3CC[C@H]2CN(c2ccnc(Nc4cn[nH]c4)n2)C3)CC1` [Example 71, 1-({(1R,5S)-3-[2-(1H-pyrazol-4-ylamino)pyrimidin-4-yl]-3,8-diazabicyclo[3.2.1]oct-8-yl}methyl)cyclopropanecarbonitrile], the IC50 is 153 nM in assay [1] (setting [5]), more than 10000 nM in assay [2] (setting [6]) and 152 nM in assay [3].
